The source of these data is US10807960B2, “Compounds, compositions, and methods for controlling biofilms” (KATHOLIEKE UNIVERSITEIT LEUVEN, priority 2015, dated 2020).

Read-outs that look alike come from different tables or passages of the source. Some results are limits rather than exact numbers.

One data set concerns S. liquefaciens MG44. Description: static peg (Calgary Biofilm Device) anti-biofilm assay, crystal violet and OD600. It is filed as cell-based, Serratia liquefaciens.
The next data set deals with Caenorhabditis elegans. Conditions: as previously reported; cited from earlier work.
For data set [1], the system named is eukaryotic tumor cell lines. Conditions: as previously reported; cited from earlier work.
Another data set has as its system S. Typhimurium ATCC14028. Description: static peg (Calgary Biofilm Device) anti-biofilm assay, crystal violet and OD600. Conditions: read-out: BIC50; biofilm formation, 25° C.
The subject of another data set is bone cells. Conditions: as previously reported; cited from earlier work.
A further data set has as its system S. aureus ATCC6538. Description: static peg (Calgary Biofilm Device) anti-biofilm assay, crystal violet and OD600. Conditions: 37° C.
The next data set deals with S. epidermidis. The data set is described as above. The following applies: 37° C.
Another data set deals with P. aeruginosa PA14. The description is as above.
Where [2] appears, read: read-out: BIC50, biofilm formation.
Where [3] appears, read: read-out: BIC50, biofilm formation, 25° C.
Setting [4] is: read-out: BIC50, biofilm formation, 37° C.
Where [5] appears, read: biofilm formation, 25° C., read-out: BIC50.
Where [6] appears, read: planktonic growth, 25° C., read-out: IC50.

For `CCCCCCCCn1c(-c2ccc(Cl)cc2)cnc1N` [Compound 2], the IC50 in the data set on S. liquefaciens MG44 (biofilm formation, read-out: BIC50) is 18.8 µM; in the data set on S. liquefaciens MG44 (planktonic growth, read-out: IC50), 38 µM; in the data set with S. Typhimurium ATCC14028 it was about 5.9 µM; with S. aureus ATCC6538 (planktonic growth), 7.8 µM; with S. aureus ATCC6538 (setting [2]), 2.8 µM; with S. epidermidis (planktonic growth), about 11.1 µM. The IC50 is about 5.6 µM with S. epidermidis (setting [2]); 10 µM in the data set with P. aeruginosa PA14 (planktonic growth, 37° C.); 4 µM in the data set on P. aeruginosa PA14 (setting [3]); 118 µM with P. aeruginosa PA14 (setting [4]). The “toxicity (in words)” value (with Caenorhabditis elegans; in data set [1]; with bone cells) was “strong toxicity” in each case.
For the molecule `CC(C)CNc1ncc(-c2ccc(Cl)cc2)[nH]1` [Compound 3], the IC50 in the data set on S. liquefaciens MG44 (setting [5]) is 10.4 µM; with S. liquefaciens MG44 (setting [6]), 154 µM; with S. Typhimurium ATCC14028, 2 µM; in the data set on S. aureus ATCC6538 (planktonic growth) it was about 96.1 µM; in the data set on S. aureus ATCC6538 (setting [2]), 95.3 µM; with S. epidermidis (planktonic growth), 86.2 µM. The IC50 in the data set with S. epidermidis (setting [2]) was over 400 µM; in the data set on P. aeruginosa PA14 (planktonic growth, 37° C.), over 400 µM; with P. aeruginosa PA14 (setting [3]) it was 0.9 µM; with P. aeruginosa PA14 (setting [4]), over 400 µM.
In the case of `Clc1ccc(-c2cnc(NC3CCCC3)[nH]2)cc1` [Compound 5], the IC50 in the data set with S. liquefaciens MG44 (setting [5]) is 8.8 µM; with S. liquefaciens MG44 (setting [6]) it was 125 µM; in the data set on S. Typhimurium ATCC14028, 4.4 µM; in the data set with S. aureus ATCC6538 (planktonic growth), 62.3 µM; with S. aureus ATCC6538 (setting [2]), 34.4 µM; with S. epidermidis (planktonic growth), 39.5 µM. For the same molecule, the IC50 with S. epidermidis (setting [2]) was over 400 µM; in the data set with P. aeruginosa PA14 (planktonic growth, 37° C.) it was over 400 µM; in the data set with P. aeruginosa PA14 (setting [3]), 13.5 µM; with P. aeruginosa PA14 (setting [4]) it was over 400 µM.
